According to patent US8449898B2 (priority 2007, dated 2013):
Like-named read-outs stand apart in the source and are kept apart here.

Legend:
[1] = tested on: Pseudoperonospora cubensis (the causal agent of cucumber downy mildew); assay: Test B: cucumber downy mildew, preventive spray on cucumber seedlings; type: in vivo; details: Pseudoperonospora cubensis
[2] = tested on: Phytophthora infestans (the causal agent of tomato late blight); assay: whole plant or invertebrate; type: in vivo; details: Phytophthora infestans

## Cc1cc(C(F)(F)F)nn1CC(=O)N1CCC(c2nc(C3=NOC(c4ccccc4)C3)cs2)CC1 (centres unmarked) [Compound 1, 4-[4-[4,5-dihydro-5-phenyl-3-isoxazolyl]-2-thiazolyl]-1-[[5-methyl-3-(trifluoromethyl)-1H-pyrazol-1-yl]acetyl]piperidine]
[1]; Compound 1 alone 0.025 ppm, Table H evaluation set, rating 100 = 100% disease control, read-out: CDM Obsd
  pest or weed control at 0.025 ppm: 33%
[1]; Compound 1 alone 0.025 ppm, Table I evaluation set, read-out: CDM Obsd
  pest or weed control at 0.025 ppm: 47%
[1]; Compound 1 alone 0.025 ppm, Table J evaluation set, read-out: CDM Obsd
  pest or weed control at 0.025 ppm: 47%
[1]; Compound 1 alone 0.025 ppm, Table K evaluation set, read-out: CDM Obsd
  pest or weed control at 0.025 ppm: 76%
[1]; Compound 1 alone 0.025 ppm, Table L evaluation set, read-out: CDM Obsd
  pest or weed control at 0.025 ppm: 51%
[1]; Compound 1 alone 0.05 ppm, Table H evaluation set, read-out: CDM Obsd
  pest or weed control at 0.05 ppm: 40%
[1]; Compound 1 alone 0.05 ppm, Table I evaluation set, read-out: CDM Obsd
  pest or weed control at 0.05 ppm: 47%
[1]; Compound 1 alone 0.05 ppm, Table J evaluation set, read-out: CDM Obsd
  pest or weed control at 0.05 ppm: 47%
[1]; Compound 1 alone 0.05 ppm, Table K evaluation set, read-out: CDM Obsd
  pest or weed control at 0.05 ppm: 92%
[1]; Compound 1 alone 0.05 ppm, Table L evaluation set, read-out: CDM Obsd
  pest or weed control at 0.05 ppm: 51%
[1]; Compound 1 alone 0.075 ppm, Table H evaluation set, read-out: CDM Obsd
  pest or weed control at 0.075 ppm: 40%
[1]; Compound 1 alone 0.075 ppm, Table I evaluation set, read-out: CDM Obsd
  pest or weed control at 0.075 ppm: 47%
[1]; Compound 1 alone 0.075 ppm, Table J evaluation set, read-out: CDM Obsd
  pest or weed control at 0.075 ppm: 47%
[1]; Compound 1 alone 0.075 ppm, Table K evaluation set, read-out: CDM Obsd
  pest or weed control at 0.075 ppm: 89%
[1]; Compound 1 alone 0.075 ppm, Table L evaluation set, read-out: CDM Obsd
  pest or weed control at 0.075 ppm: 51%
[1]; Compound 1 alone 0.1 ppm, Table H evaluation set, read-out: CDM Obsd
  pest or weed control at 0.1 ppm: 76%
[1]; Compound 1 alone 0.1 ppm, Table I evaluation set, read-out: CDM Obsd
  pest or weed control at 0.1 ppm: 57%
[1]; Compound 1 alone 0.1 ppm, Table J evaluation set, read-out: CDM Obsd
  pest or weed control at 0.1 ppm: 47%
[1]; Compound 1 alone 0.1 ppm, Table K evaluation set, read-out: CDM Obsd
  pest or weed control at 0.1 ppm: 98%
[1]; Compound 1 alone 0.1 ppm, Table L evaluation set, read-out: CDM Obsd
  pest or weed control at 0.1 ppm: 98%
[1]; Compound 1 alone 0.125 ppm, Table H evaluation set, read-out: CDM Obsd
  pest or weed control at 0.125 ppm: 81%
[1]; Compound 1 alone 0.125 ppm, Table I evaluation set, read-out: CDM Obsd
  pest or weed control at 0.125 ppm: 57%
[1]; Compound 1 alone 0.125 ppm, Table J evaluation set, read-out: CDM Obsd
  pest or weed control at 0.125 ppm: 47%
[1]; Compound 1 alone 0.125 ppm, Table K evaluation set, read-out: CDM Obsd
  pest or weed control at 0.125 ppm: 99%
[1]; Compound 1 alone 0.125 ppm, Table L evaluation set, read-out: CDM Obsd
  pest or weed control at 0.125 ppm: 81%
[1]; Table A, Compound 1 alone 0.05 ppm, read-out: CDM Obsd (disease control rating)
  pest or weed control at 0.05 ppm: 88%
[1]; Table A, Compound 1 alone 0.1 ppm, read-out: CDM Obsd (disease control rating)
  pest or weed control at 0.1 ppm: 95%
[1]; Table A, Compound 1 alone 0.15 ppm, read-out: CDM Obsd (disease control rating)
  pest or weed control at 0.15 ppm: 100%
[1]; Table A, Compound 1 alone 0.2 ppm, read-out: CDM Obsd (disease control rating)
  pest or weed control at 0.2 ppm: 100%
[1]; Table A, Compound 1 alone 1 ppm, read-out: CDM Obsd (disease control rating)
  pest or weed control at 1 ppm: 100%
[1]; Table B, Compound 1 alone 0.05 ppm, read-out: CDM Obsd (disease control rating)
  pest or weed control at 0.05 ppm: 64%
[1]; Table B, Compound 1 alone 0.1 ppm, read-out: CDM Obsd (disease control rating)
  pest or weed control at 0.1 ppm: 86%
[1]; Table B, Compound 1 alone 0.15 ppm, read-out: CDM Obsd (disease control rating)
  pest or weed control at 0.15 ppm: 85%
[1]; Table B, Compound 1 alone 0.2 ppm, read-out: CDM Obsd (disease control rating)
  pest or weed control at 0.2 ppm: 92%
[1]; Table B, Compound 1 alone 1 ppm, read-out: CDM Obsd (disease control rating)
  pest or weed control at 1 ppm: 100%
[1]; Table C, Compound 1 alone 0.05 ppm, read-out: CDM Obsd (disease control rating)
  pest or weed control at 0.05 ppm: 77%
[1]; Table C, Compound 1 alone 0.1 ppm, read-out: CDM Obsd (disease control rating)
  pest or weed control at 0.1 ppm: 86%
[1]; Table C, Compound 1 alone 0.15 ppm, read-out: CDM Obsd (disease control rating)
  pest or weed control at 0.15 ppm: 95%
[1]; Table C, Compound 1 alone 0.2 ppm, read-out: CDM Obsd (disease control rating)
  pest or weed control at 0.2 ppm: 100%
[1]; Table C, Compound 1 alone 1 ppm, read-out: CDM Obsd (disease control rating)
  pest or weed control at 1 ppm: 100%
[1]; Table D, Compound 1 alone at 0.05 ppm, read-out: CDM Obsd
  pest or weed control at 0.05 ppm: 64%
[1]; Table D, Compound 1 alone at 0.1 ppm, read-out: CDM Obsd
  pest or weed control at 0.1 ppm: 77%
[1]; Table D, Compound 1 alone at 0.15 ppm, read-out: CDM Obsd
  pest or weed control at 0.15 ppm: 86%
[1]; Table D, Compound 1 alone at 0.2 ppm, read-out: CDM Obsd
  pest or weed control at 0.2 ppm: 93%
[1]; Table D, Compound 1 alone at 1 ppm, read-out: CDM Obsd
  pest or weed control at 1 ppm: 100%
[1]; Table F, Compound 1 alone at 0.025 ppm, read-out: CDM Obsd
  pest or weed control at 0.025 ppm: 40%
[1]; Table F, Compound 1 alone at 0.05 ppm, read-out: CDM Obsd
  pest or weed control at 0.05 ppm: 68%
[1]; Table F, Compound 1 alone at 0.075 ppm, read-out: CDM Obsd
  pest or weed control at 0.075 ppm: 39%
[1]; Table F, Compound 1 alone at 0.1 ppm, read-out: CDM Obsd
  pest or weed control at 0.1 ppm: 47%
[1]; Table F, Compound 1 alone at 0.125 ppm, read-out: CDM Obsd
  pest or weed control at 0.125 ppm: 58%
[1]; Table G, Compound 1 alone at 0.025 ppm, read-out: CDM Obsd
  pest or weed control at 0.025 ppm: 26%
[1]; Table G, Compound 1 alone at 0.05 ppm, read-out: CDM Obsd
  pest or weed control at 0.05 ppm: 26%
[1]; Table G, Compound 1 alone at 0.075 ppm, read-out: CDM Obsd
  pest or weed control at 0.075 ppm: 47%
[1]; Table G, Compound 1 alone at 0.1 ppm, read-out: CDM Obsd
  pest or weed control at 0.1 ppm: 47%
[1]; Table G, Compound 1 alone at 0.125 ppm, read-out: CDM Obsd
  pest or weed control at 0.125 ppm: 68%
[2]; read-out: TLB Obsd (disease control rating), Table A, Compound 1 alone 0.05 ppm
  pest or weed control at 0.05 ppm: 34%
[2]; read-out: TLB Obsd (disease control rating), Table A, Compound 1 alone 0.1 ppm
  pest or weed control at 0.1 ppm: 78%
[2]; read-out: TLB Obsd (disease control rating), Table A, Compound 1 alone 0.15 ppm
  pest or weed control at 0.15 ppm: 97%
[2]; read-out: TLB Obsd (disease control rating), Table A, Compound 1 alone 0.2 ppm
  pest or weed control at 0.2 ppm: 94%
[2]; read-out: TLB Obsd (disease control rating), Table A, Compound 1 alone 1 ppm
  pest or weed control at 1 ppm: 100%
[2]; read-out: TLB Obsd (disease control rating), Table B, Compound 1 alone 0.05 ppm
  pest or weed control at 0.05 ppm: 26%
[2]; read-out: TLB Obsd (disease control rating), Table B, Compound 1 alone 0.1 ppm
  pest or weed control at 0.1 ppm: 53%
[2]; read-out: TLB Obsd (disease control rating), Table B, Compound 1 alone 0.15 ppm
  pest or weed control at 0.15 ppm: 59%
[2]; read-out: TLB Obsd (disease control rating), Table B, Compound 1 alone 0.2 ppm
  pest or weed control at 0.2 ppm: 56%
[2]; read-out: TLB Obsd (disease control rating), Table B, Compound 1 alone 1 ppm
  pest or weed control at 1 ppm: 100%
[2]; read-out: TLB Obsd (disease control rating), Table C, Compound 1 alone 0.05 ppm
  pest or weed control at 0.05 ppm: 17%
[2]; read-out: TLB Obsd (disease control rating), Table C, Compound 1 alone 0.1 ppm
  pest or weed control at 0.1 ppm: 17%
[2]; read-out: TLB Obsd (disease control rating), Table C, Compound 1 alone 0.15 ppm
  pest or weed control at 0.15 ppm: 57%
[2]; read-out: TLB Obsd (disease control rating), Table C, Compound 1 alone 0.2 ppm
  pest or weed control at 0.2 ppm: 51%
[2]; read-out: TLB Obsd (disease control rating), Table C, Compound 1 alone 1 ppm
  pest or weed control at 1 ppm: 99%
[2]; read-out: TLB Obsd, Table D, Compound 1 alone at 0.05 ppm
  pest or weed control at 0.05 ppm: 32%
[2]; read-out: TLB Obsd, Table D, Compound 1 alone at 0.1 ppm
  pest or weed control at 0.1 ppm: 52%
[2]; read-out: TLB Obsd, Table D, Compound 1 alone at 0.15 ppm
  pest or weed control at 0.15 ppm: 90%
[2]; read-out: TLB Obsd, Table D, Compound 1 alone at 0.2 ppm
  pest or weed control at 0.2 ppm: 67%
[2]; read-out: TLB Obsd, Table D, Compound 1 alone at 1 ppm
  pest or weed control at 1 ppm: 100%
[2]; read-out: TLB Obsd, Table E, Compound 1 alone at 0.05 ppm
  pest or weed control at 0.05 ppm: 33%
[2]; read-out: TLB Obsd, Table E, Compound 1 alone at 0.1 ppm
  pest or weed control at 0.1 ppm: 75%
[2]; read-out: TLB Obsd, Table E, Compound 1 alone at 0.15 ppm
  pest or weed control at 0.15 ppm: 92%
[2]; read-out: TLB Obsd, Table E, Compound 1 alone at 0.2 ppm
  pest or weed control at 0.2 ppm: 90%
[2]; read-out: TLB Obsd, Table E, Compound 1 alone at 1 ppm
  pest or weed control at 1 ppm: 100%
